According to the supplement of paper PMC10307832:

Legend:
Test in all cases: relative viability (nuclei count vs DMSO), 5 days (fraction); higher = more cells survive
[1] = compound: O=S(=O)(c1ccccc1)N(CC(F)(F)F)c1ccc(C(O)(C(F)(F)F)C(F)(F)F)cc1 + CCNC(=O)c1noc(-c2cc(C(C)C)c(O)cc2O)c1-c1ccc(CN2CCOCC2)cc1 [Luminespib] (partner 0.01 µM)
Outline: (§1)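 Lung cancer cell lines in 1536-well plates got either a single drug or a fixed anchor-drug dose together with five library-drug doses (not always all listed) in √10 steps, by pin tool, on the day after seeding. Nuclei were counted after 5 days, and relative viability is the treated-to-vehicle ratio of nuclei counts. Values are medians of duplicate plates.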

[2] = compound: O=S(=O)(c1ccccc1)N(CC(F)(F)F)c1ccc(C(O)(C(F)(F)F)C(F)(F)F)cc1 + N=C(N)NC(=N)NCCc1ccccc1 [Phenformin] (partner 250 µM)
Outline: as §1

[3] = compound: O=S(=O)(c1ccccc1)N(CC(F)(F)F)c1ccc(C(O)(C(F)(F)F)C(F)(F)F)cc1 + CC(=O)c1c(C)c2cnc(Nc3ccc(N4CCNCC4)cn3)nc2n(C2CCCC2)c1=O [Palbociclib] (partner 0.5 µM)
Outline: as §1

RO-3306 + Crizotinib = compound: C1=CC2=C(C=CC(=C2)C=C3C(=O)NC(=NCC4=CC=CS4)S3)N=C1 [RO-3306] + C[C@@H](Oc1cc(-c2cnn(C3CCNCC3)c2)cnc1N)c1c(Cl)ccc(F)c1Cl [Crizotinib] (partner 1 µM)
Outline: as §1

[4] = compound: O=S(=O)(c1ccccc1)N(CC(F)(F)F)c1ccc(C(O)(C(F)(F)F)C(F)(F)F)cc1 + CS(=O)(=O)CCNCc1ccc(-c2ccc3ncnc(Nc4ccc(OCc5cccc(F)c5)c(Cl)c4)c3c2)o1 [Lapatinib] (partner 2 µM)
Outline: as §1

[5] = compound: O=S(=O)(c1ccccc1)N(CC(F)(F)F)c1ccc(C(O)(C(F)(F)F)C(F)(F)F)cc1 + NC(=O)Nc1cc(-c2cccc(F)c2)sc1C(=O)N[C@H]1CCCNC1 [AZD7762] (partner 0.2 µM)
Outline: as §1

Cell Line	relative viability ([1]; first compound 0.8 µM)	relative viability ([1]; first compound 2.53 µM)	relative viability ([1]; first compound 8 µM)	relative viability ([2]; first compound 0.8 µM)	relative viability ([2]; first compound 2.53 µM)	relative viability ([2]; first compound 8 µM)	relative viability ([3]; first compound 0.8 µM)	relative viability ([3]; first compound 2.53 µM)	relative viability ([3]; first compound 8 µM)	relative viability (RO-3306 + Crizotinib; first compound 0.01 µM)	relative viability (RO-3306 + Crizotinib; first compound 0.03162 µM)	relative viability (RO-3306 + Crizotinib; first compound 0.1 µM)	relative viability (RO-3306 + Crizotinib; first compound 0.3162 µM)	relative viability (RO-3306 + Crizotinib; first compound 1 µM)	relative viability ([4]; first compound 0.8 µM)	relative viability ([4]; first compound 2.53 µM)	relative viability ([4]; first compound 8 µM)	relative viability ([5]; first compound 0.8 µM)	relative viability ([5]; first compound 2.53 µM)	relative viability ([5]; first compound 8 µM)
NCI-H2228	0.154	0.165	0.122	0.319	0.286	0.293	0.989	0.639	0.722	0.471	0.335	0.408	0.445	0.541	1.32	0.964	1.5	–	–	–
NCI-H1563	0.545	0.485	0.551	0.676	0.637	0.675	–	–	–	0.866	0.849	0.894	0.873	0.918	0.85	0.899	0.761	–	–	–
SK-LU-1	0.169	0.165	0.196	0.546	0.489	0.526	0.358	0.423	0.376	0.991	0.84	1.03	0.935	0.716	0.903	1.02	0.753	–	–	–
NCI-H2023	0.921	0.638	0.535	0.472	0.369	0.311	0.335	0.328	0.27	0.644	0.6	0.612	0.593	0.621	0.742	0.743	0.55	–	–	–
NCI-H1299	–	–	–	–	–	–	–	–	–	1.02	0.943	0.998	0.988	0.991	0.923	0.952	0.879	–	–	–
NCI-H1623	0.625	0.411	0.491	0.6	0.559	0.57	–	–	–	–	–	–	–	–	–	–	–	–	–	–
NCI-H661	0.89	0.866	0.821	0.272	0.333	0.3	0.426	0.386	0.396	1.03	1.22	1.06	0.773	1.07	0.606	0.466	0.465	–	–	–
SW 1573	0.266	0.218	0.207	0.47	0.37	0.401	0.449	0.323	0.356	0.879	0.62	0.771	0.865	0.606	1.18	1.2	1.06	–	–	–
IA-LM	–	–	–	–	–	–	–	–	–	0.905	–	0.923	1.11	0.546	0.903	0.68	0.752	–	–	–
NCI-H1650	0.184	0.2	0.231	0.347	0.366	0.384	0.308	0.276	0.367	1.02	0.921	0.973	1.02	0.732	0.871	0.735	0.723	–	–	–
COR-L23	0.953	0.728	0.628	0.452	0.451	0.427	0.332	0.269	0.285	0.45	–	0.748	0.694	0.74	1.24	0.872	0.913	–	–	–
COR-L 105	0.784	0.665	0.659	0.455	0.422	0.492	0.328	0.411	0.378	0.757	0.794	0.781	0.768	0.673	0.377	0.386	0.371	–	–	–
EBC-1	–	–	–	–	–	–	–	–	–	0.206	0.233	0.202	0.181	0.205	0.307	0.353	0.337	–	–	–
Calu-6	–	–	–	–	–	–	–	–	–	0.909	0.774	0.802	0.804	0.768	0.945	0.901	0.966	–	–	–
SK-MES-1	0.677	0.744	0.533	0.779	0.745	0.65	0.351	0.354	0.277	1.1	0.867	0.969	0.991	1.07	0.442	0.424	0.514	–	–	–
NCI-H520	0.218	0.242	0.237	0.825	0.568	0.708	0.231	0.254	0.236	0.877	0.423	0.772	0.825	0.748	1.07	0.84	1.01	–	–	–
NCI-H2009	1	0.878	0.787	0.47	0.439	0.419	0.174	0.238	0.223	1.05	0.976	1.02	1.07	1.04	0.922	0.804	0.844	–	–	–
NCI-H596	1.13	0.69	0.923	0.805	0.717	0.667	–	–	–	0.968	0.896	0.998	1.07	1.08	0.999	0.828	0.998	1.04	0.946	0.933
A549	–	–	–	0.17	0.159	0.186	–	–	–	0.872	0.705	0.751	0.687	0.706	0.949	0.772	0.715	–	–	–
NCI-H1648	–	–	–	–	–	–	0.258	0.274	0.29	–	–	–	–	–	–	–	–	0.694	0.505	0.707
NCI-H1703	–	–	–	–	–	–	–	–	–	0.951	0.418	0.719	0.91	0.568	1.21	0.749	0.906	0.132	0.119	0.132
